Test results from ChEMBL document CHEMBL2073941, “TP-search Transporter Database” (Gastroenterology, 1994).

Target: T1, OAT1 (Solute carrier family 22 member 6) (Homo sapiens, UniProt Q4U2R8)
T1 sequence (Q4U2R8 whole entry): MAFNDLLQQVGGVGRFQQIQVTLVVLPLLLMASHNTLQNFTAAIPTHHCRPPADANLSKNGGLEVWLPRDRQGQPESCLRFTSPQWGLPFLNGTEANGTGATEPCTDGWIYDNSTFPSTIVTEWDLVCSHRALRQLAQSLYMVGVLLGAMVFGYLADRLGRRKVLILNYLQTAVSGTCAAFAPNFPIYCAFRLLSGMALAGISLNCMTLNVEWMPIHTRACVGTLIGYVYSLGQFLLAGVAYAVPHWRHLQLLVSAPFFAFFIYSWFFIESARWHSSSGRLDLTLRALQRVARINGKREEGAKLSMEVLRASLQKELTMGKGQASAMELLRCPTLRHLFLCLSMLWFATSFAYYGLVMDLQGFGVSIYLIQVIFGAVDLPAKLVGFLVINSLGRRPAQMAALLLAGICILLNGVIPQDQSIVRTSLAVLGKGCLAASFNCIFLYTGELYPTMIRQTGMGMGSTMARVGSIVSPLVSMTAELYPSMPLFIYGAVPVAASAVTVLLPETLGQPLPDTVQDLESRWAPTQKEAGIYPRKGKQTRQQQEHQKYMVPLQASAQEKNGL
Assay: TP_TRANSPORTER: inhibition of Urate uptake (Urate: 300 uM, DIDS: 2000 uM) in OAT1-expressing S2 cells
Format: functional, cell-based
Design: scale not given: the % may be the effect or the level left
Details: S2 cells that express OAT1, probe urate (300 uM); read-out: Activity

activity at 2000 µM: 64.2%
SMILES: O=S(=O)(O)c1cc(N=C=S)ccc1/C=C/c1ccc(NC=S)cc1S(=O)(=O)O
